Patent publication US20210308196A1, “COMPOSITIONS AND METHODS TO PROMOTE HOST DEFENSE AND STIMULATE, EXPAND, AND/OR RESET T CELL REPERTOIRES” (EVOLVE BIOSYSTEMS, INC., priority 2018, published 2021)

Assays:
infant gut microbiome = experiment: Infant fecal microbiome analysis (16S rDNA sequencing, B. infantis qPCR); type: in vivo, human
Procedure: Infant fecal samples were collected throughout the 60-day trial. Mothers collected their own fecal and breastmilk samples as well as fecal samples from their infants. They filled out weekly, biweekly and monthly health and diet questionnaires, as well as daily logs about their infant feeding and gastrointestinal tolerability (GI). Safety and tolerability were determined from maternal reports of infants' feeding, stooling frequency, and consistency (using a modified Amsterdam infant stool scale—watery, soft, formed, hard; Bekkali et al. 2009), as well as GI symptoms and health outcomes. Individual fecal samples were subjected to full microbiome analysis using Illumina sequencing based on 16S rDNA and qPCR with primers designed specifically for B. longum subsp. infantis strain.
Evaluation of EVC001 colonization. As previously described in Frese et al. (2017) (mSphere 2(6): e00501-00517) colonization is measured at baseline and post-feeding by quantitative PCR using specific primers for B. infantis. Colonization is considered when B. infantis abundance is greater than 10^5, but more preferably greater than 10^7 or 10^8 CFU/ug DNA. Colonization may also be described as a significant expansion of the total relative contribution of Bifidobacteriaceae to the infant gut microbiome.
Bacterial DNA Methods. The relative abundance of the stool bacteria at the phylum, class, order, family, and genus level was characterized by performing a sequence analysis of the V4 segment of the 16S rRNA gene using QIIME v1.9.1.

[1] = Bacterial growth and oligosaccharide use in HMO, LNnT or FOS media (growth curves, HPLC); conditions: compared to other Bifidobacterium and Lactobacillus strains
Procedure: Little is known about the anti-inflammatory effects B. infantis-derived metabolites have on intestinal epithelial cells and how they might protect and maintain mucosal integrity in the infant gut. To investigate whether metabolites from B. infantis grown on HMO and synthetic HMOs can provide protective effects against pathogen-induced inflammation and maintain mucosal integrity compared to other commensal strains that have been previously characterized. B. infantis, B. breve, B. bifidum, and B. longum were grown in media containing pooled HMOs, synthetic Lacto-N-neotetraose (LNnT), or fructo-oligosaccharide (FOS, a readily available oligosaccharide commonly used in baby formulas). Four Lactobacillus plantarum strains were also grown in HMO, LNnT, and FOS media. Spent supernatant was collected and filtered after 48 hours of growth (when the bacteria reached the stationary phase) and evaluated for the remaining oligosaccharide concentration. […] After overnight incubation, cell supernatant was analyzed by ELISA for reductions in pro-inflammatory cytokines, including IL-8 and TNF-alpha. […]

peanut extract allergy = experiment: Prevention of murine peanut allergy; type: in vivo, mouse
Excerpt: Germ-free mouse pups are weaned 3-4 weeks after birth and put on a polysaccharide-free diet that is enriched for Vitamin A. As soon as the mouse pups are weaned, they are gavaged with a dysbiotic (no Bifidobacterium sp. and high proteobacteria) human infant microbiome at Day 1 of the experiment. The mice are divided into 4 groups: control, control plus LNnT, B. infantis, and B. infantis plus LNnT. Mice are given the composition for 21 days. All Groups receive B. infantis or placebo every 3 days by gavage. The LNnT or placebo is added to the drinking water for 21 days. Mice receive intragastric gavage of peanut extract on weekly at 5 mg/mouse for sensitization and then 25 mg/mouse at week 5 for challenge with 10 μg of Cholera toxin to elicit anaphylaxis. Control animals receive intragastric gavage with vehicle only. Anaphylaxis symptoms are evaluated, and then mice are necropsied. Plasma samples are collected for evaluation of histamine and IgE concentrations. White blood cells are isolated for PBMC characterization and evaluation of regulatory T cell population expansion using flow cytometry specific for CD4, CD25, Foxp3, Helios, Neuropilin, CD8, CD44, CD62L, IFNgamma, IL-17, and B cell populations, including Bregs and plasma cells using the following markers: IgM, CD5, CD24, CD19, CD19, CD20, CD34, CD38, CD45R, CD78, CD80, and CD138.

peanut allergy = experiment: Prevention of human peanut allergy in infants; type: in vivo; conditions: high-level colonization vs control group with low-level colonization
Procedure: Infants 2-4 months of age at risk of allergy are recruited and their stool is screened for their Bifidobacterium infantis status (Bifidobacterium infantis abundance). The infants are divided into 2 groups: high Bifidobacterium (desirable infant gut microbiome) and low Bifidobacterium (dysbiotic infant gut microbiome). Low Bifidobacterium stool samples are determined to be low Bifidobacterium or dysbiotic, if their levels of Bifidobacterium are less than a threshold of 10^8 CFU/ug DNA and/or Bifidobacteriaceae family is less than 35% of the total infant gut microbiome as measured by a next generation sequencing, such as 16S RNA sequence. Conversely, a high Bifidobacterium sample or desirable infant gut microbiome has a threshold of 10^8 CFU/ug DNA or greater and/or Bifidobacteriaceae family is greater than 35% of the total infant gut microbiome. Once the infants are screened, the dysbiotic group is randomized into a placebo arm or a supplemented arm receiving activated B. infantis, LNnT and retinol. Infants are fed the supplement or placebo for 16 weeks. At 12 weeks, peanut extract is introduced to the diet for 3 days to infants who are at least 4 months old. Blood samples are taken at 12 weeks, 16 weeks, 20 weeks, 24 weeks, 36 weeks, 40 weeks to analyze TReg cells and IgE. At 9 months, the infants are brought in for a peanut challenge. The incident of allergy between groups is analyzed.

[2] = Prevention and/or treatment of severe acute malnutrition (SAM) in infants; type: in vivo, human; conditions: 28 days
[3] = infant feces, Day 6 (Baseline), before supplementation starts on Day 7

Substance: Bifidobacterium longum subsp. infantis EVC001 [B. infantis EVC001]
- Levels of proteobacteria and enterococci (infant gut microbiome; colonized infants versus unsupplemented): much lower levels
- B. infantis colonization level of infant gut (infant gut microbiome; continued after supplementation ended (Day 28) while breast milk consumed): higher than 10^10 cfu/g feces
- Bacteroidaceae % Relative Abundance (infant gut microbiome; [3]): 0.1040%
- Bifidobacteriaceae % Relative Abundance (infant gut microbiome; [3]): 0.1472%
- Clostridiaceae % Relative Abundance (infant gut microbiome; [3]): 0.0874%
- Enterobacteriaceae % Relative Abundance (infant gut microbiome; [3]): 0.2743%
- Enterococcaceae % Relative Abundance (infant gut microbiome; [3]): 0.0539%
- Lachnospiraceae % Relative Abundance (infant gut microbiome; [3]): 0.0197%
- Other families % Relative Abundance (infant gut microbiome; [3]): 0.1357%
- Staphylococcaceae % Relative Abundance (infant gut microbiome; [3]): 0.0543%
- Streptococcaceae % Relative Abundance (infant gut microbiome; [3]): 0.1169%
- Veillonellaceae % Relative Abundance (infant gut microbiome; [3]): 0.0065%
- Bifidobacteriaceae % Relative Abundance (infant gut microbiome; infant feces, Day 40): significantly higher
- Enterococcaceae % Relative Abundance (infant gut microbiome; infant feces, Day 40): 0.0045%
- Lachnospiraceae % Relative Abundance (infant gut microbiome; infant feces, Day 40): 0.0072%
- Other families % Relative Abundance (infant gut microbiome; infant feces, Day 40): 0.0215%
- Staphylococcaceae % Relative Abundance (infant gut microbiome; infant feces, Day 40): 0.0036%
- Streptococcaceae % Relative Abundance (infant gut microbiome; infant feces, Day 40): 0.0291%
- Veillonellaceae % Relative Abundance (infant gut microbiome; infant feces, Day 40): 0.0077%
- Bifidobacteriaceae % Relative Abundance (infant gut microbiome; infant feces, Day 40, listed as EVC001): 0.8712%
- Enterobacteriaceae % Relative Abundance (infant gut microbiome; infant feces, Day 60): 0.0427%
- Enterococcaceae % Relative Abundance (infant gut microbiome; infant feces, Day 60): 0.0082%
- Lachnospiraceae % Relative Abundance (infant gut microbiome; infant feces, Day 60): 0.0081%
- Other families % Relative Abundance (infant gut microbiome; infant feces, Day 60): 0.02443%
- Staphylococcaceae % Relative Abundance (infant gut microbiome; infant feces, Day 60): 0.0039%
- Streptococcaceae % Relative Abundance (infant gut microbiome; infant feces, Day 60): 0.0277%
- Veillonellaceae % Relative Abundance (infant gut microbiome; infant feces, Day 60): 0.0076%
- Gut microbiome share of B. longum subsp. infantis (infant gut microbiome; supplemented infants, on average, regardless of birthing mode): greater than 70%
- Growth in HMOs (growth curves) [1]: selective growth advantage
- Inflammatory responses to the food antigen (peanut extract allergy; compared to control mice): reduce
- Anaphylaxis (peanut extract allergy; peanut extract challenge with Cholera toxin): prevent
- Inflammatory responses to the food antigen (peanut allergy): reduces
- Incidence of symptoms of acute malnutrition [2]: lower
- TReg cells [2]: expansion
- Weight gain [2]: better
- B cell and plasma cell profiles, vaccine responses ([2]; children with SAM / hospitalized infants): improved
